Earlier results as cited in US20070105756A1 (priority 2005, published 2007).

System: sensitive individuals
Details: oral route

For `NCCc1c[nH]cn1` [histamine], the “histamine concentration known to be biologically active” value is listed as over 5 nM.
